In patent publication US20150031628A1, “METHODS AND FORMULATIONS FOR CONVERTING INTRAVENOUS AND INJECTABLE DRUGS INTO ORAL DOSAGE FORMS” (ZOMANEX, LLC, priority 2007, published 2015):

What was measured:
in vivo [1] = details: female, beagle, dog, plasma, po, 20 mg
Experimental: (§1) To these ends, pharmacokinetic studies were performed in five naïve, female beagle dogs with each drug dosed in a formulation system using a crossover design, with a one week wash out period between doses. […] Following a 16-hour fast, the animals were fed a small amount (approximately ¼ can) of Hill/s Science Diet A/D and thirty minutes later each animal was orally dosed with one of the formulations of the appropriate test article. Blood samples were drawn 0.5, 1.0, 1.5, 3.0, 4.5, 8.0, and 24 hours after dosing.
Solid Preparation—Paclitaxel. Solid Paclitaxel (300 mg), soy sterols (300 mg) and lysolecithin (900 mg) were added to a 30 mL glass tube and chloroform (3.0 ml) was added. After the solids were dissolved with gentle heating in a 60° C. water bath, the solvent was removed under a stream of nitrogen. The mass was then pumped on under vacuum to remove residual solvent. Addition of water (15 mL) softened the solid mass and the mixture was then sonicated in an ice bath for two minutes on 40% power, followed by two minutes sonication on 50% power and then two minutes sonication on 60% power. […]
Absorption Experiment With Solid Formulations. After dosing with each formulation, all the blood samples were processed and analyzed as described for the liquid formulations.

in vivo [2] = details: female, beagle, dog, plasma, po, 20 mg; remark: listed apart in the source
Experimental: as §1
The liquid was then dosed to the animal with a syringe. Water was then added to the syringe and the washing was administered to the dog.
After dosing with each formulation, all the blood samples were collected in a sodium heparin anticoagulant tube, processed to plasma and frozen at −80° C. Plasma Paclitaxel concentration at each time point for each of the five dogs was determined by high throughput liquid chromatographic-tandem mass spectrometric quantification at Bioanalytical Systems (McMinnville, Oreg.). […] To quantitate the absorption changes, the area under the curve (AUC0→∞) was calculated for each formulation system and the results are shown in the Table below.

- AUC(0-inf) (in vivo [1]): 28.9 ± 7.1 ng·h/mL
- AUC(0-inf) (in vivo [2]): 28.9 ± 7.1 ng·h/mL
Compound: CC(=O)O[C@H]1C(=O)[C@@]2(C)[C@H]([C@H](OC(=O)c3ccccc3)[C@]3(O)C[C@H](OC(=O)[C@H](O)[C@@H](NC(=O)c4ccccc4)c4ccccc4)C(C)=C1C3(C)C)[C@]1(OC(C)=O)CO[C@@H]1C[C@@H]2O [Unformulated Paclitaxel, Paclitaxel]
